What is called bioavailability is dose-corrected exposure relative to a reference, in per cent. As a reminder, the half-life is the time in which the quantity being followed falls by half. In general, IC50 refers to the concentration that gives 50% inhibition. What is called AUC is the area under the concentration-time curve, a measure of exposure. By logD is commonly meant the decadic logarithm of the distribution of all forms, ionised or not, between an organic phase and buffer at a given pH. For orientation: Cmax means the highest concentration seen after dosing. One may read the solubility as how much of the substance goes into solution per volume. As a reminder, the Log D is lipophilicity at a set pH, counting ionised and neutral species.

Each structure is given as a SMILES string.

This is an account of results in ChEMBL document CHEMBL1148802, “Discovery and synthesis of HIV integrase inhibitors: development of potent and orally bioavailable N-methyl pyrimidones” (J Med Chem, 2007).

The nature of data set [1]: Oral bioavailability in Sprague-Dawley rat. The format is ADME, organism-based. The note with it: in vivo.
Data set [2] is described as follows: Plasma half life in iv dosed Sprague-Dawley rat. The format is ADME, organism-based.
The subject of data set [3] is Human immunodeficiency virus 1. Briefly: Antiviral activity against HIV13b in MT4 cells assessed as decrease in HIV1 p24 core antigen in presence of fetal bovine serum. The note with it: for IC95: Human immunodeficiency virus 1, 3b, MT4, read-out: CIC95. The format is functional, 3b.
In data set [4] the test system is Human immunodeficiency virus 1. In words: Antiviral activity against HIV1 3b in MT4 cells assessed as decrease in […] p24 core antigen in presence of normal human serum. As to conditions: for IC95: Human immunodeficiency virus 1, 3b, MT4, read-out: CIC95; call rule not given here. The format is functional.
The nature of data set [5]: Plasma clearance in Sprague-Dawley rat. The format is ADME, organism-based.
The target of data set [6] is Human immunodeficiency virus type 1 integrase (Human immunodeficiency virus 1, UniProt Q7ZJM1). In words: Inhibition of HIV integrase activity by HIV strand transfer assay.
A further data set is filed under the species Homo sapiens. In words: Protein binding in human plasma. The note with it: read-out: PPB (converted).
Data set [7] is described as follows: Protein binding in Sprague-Dawley rat plasma. The note with it: read-out: PPB (converted). The format is ADME, cell-free.
A short description of data set [8]: AUC in Sprague-Dawley rat at 2.4 mg/kg, po. The format is ADME, organism-based. Also noted: dose 2.4 mg/kg, route oral. The note with it: plasma.
Data set [9] in a line: Distribution coefficient, log D of the compound. The format is physicochemical. The note with it: octanol/water.
Data set [10] is described as follows: Plasma clearance in Beagle dog. The format is ADME, organism-based, Canis lupus familiaris.
Data set [11] in a line: Oral bioavailability in Beagle dog. The note with it: in vivo. The format is ADME, organism-based, Canis lupus familiaris.
Data set [12] is described as follows: Plasma half life in iv dosed Beagle dog. The format is ADME, organism-based, Canis lupus familiaris.
A short description of data set [13]: AUC in Beagle dog at 2 mg/kg, po. The format is ADME, organism-based, Canis lupus familiaris. The arrangement: dose 2 mg/kg, route oral. As to conditions: plasma.
Another data set has as its system Rattus norvegicus. In words: (§1) AUC in Sprague-Dawley rat at 3 mg/kg, po. The format is ADME, organism-based, Plasma. The arrangement: dose 3 mg/kg, route oral. The note with it: in vivo.
A short description of data set [14]: Protein binding in Beagle dog plasma. The format is ADME, organism-based, Canis lupus familiaris. The note with it: read-out: PPB (converted).
A short description of data set [15]: AUC in Beagle dog at 1 mg/kg, po. The note with it: plasma. The format is ADME, organism-based, Canis lupus familiaris. The arrangement: dose 1 mg/kg, route oral.
Data set [16] is described as follows: as §1. The format is ADME, organism-based, Plasma. The arrangement: dose 3 mg/kg, route oral. As to conditions: Sprague-Dawley, plasma.
Data set [17] in a line: Cmax in Beagle dog at 4 mg/kg, iv and 10 mg/kg, po. The format is ADME, organism-based, Canis lupus familiaris. The note with it: in vivo.
Data set [18] in a line: Plasma clearance in rhesus monkey at 1 mg/kg, po and 1 mg/kg, iv. The format is ADME, organism-based, Macaca mulatta.
A short description of data set [19]: Plasma clearance in Sprague-Dawley rat at 3mg/kg, iv and 3mg/kg, po. The format is ADME, organism-based.
The next data set deals with T1, Cytochrome P450 1A2 (Homo sapiens, UniProt P05177).
T1 sequence (P05177 whole entry): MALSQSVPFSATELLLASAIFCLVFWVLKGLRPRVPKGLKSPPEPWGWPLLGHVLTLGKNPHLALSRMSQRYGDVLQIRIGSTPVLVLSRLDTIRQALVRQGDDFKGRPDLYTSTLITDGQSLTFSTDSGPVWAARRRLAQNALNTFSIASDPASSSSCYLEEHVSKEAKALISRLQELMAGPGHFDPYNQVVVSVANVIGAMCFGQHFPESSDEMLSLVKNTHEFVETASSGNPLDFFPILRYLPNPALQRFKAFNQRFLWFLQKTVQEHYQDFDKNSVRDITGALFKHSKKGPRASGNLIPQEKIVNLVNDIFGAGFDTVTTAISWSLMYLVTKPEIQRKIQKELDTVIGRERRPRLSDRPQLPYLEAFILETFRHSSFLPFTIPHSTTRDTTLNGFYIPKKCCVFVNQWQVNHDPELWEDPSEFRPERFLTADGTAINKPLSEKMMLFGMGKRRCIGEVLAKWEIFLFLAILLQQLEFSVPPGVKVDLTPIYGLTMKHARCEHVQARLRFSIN
In words: Inhibition of human CYP1A2 at 100 uM. The format is ADME.

For the next data set, the target named is Cytochrome P450 2D6 (Homo sapiens, UniProt P10635). Briefly: Inhibition of human CYP2D6 at 100 uM. The format is ADME.
The nature of data set [20]: Cmax in Sprague-Dawley rat at 3 mg/kg, iv and 3 mg/kg, po. The format is ADME, organism-based. As to conditions: in vivo.
The nature of data set [21]: Plasma clearance in Beagle dog at 4 mg/kg, iv and 10 mg/kg, po. The format is ADME, organism-based, Canis lupus familiaris.
The nature of data set [22]: AUC in Beagle dog at 10 mg/kg, po. The format is ADME, organism-based, Canis lupus familiaris. The arrangement: dose 10 mg/kg, route oral. As to conditions: plasma.
The nature of data set [23]: Oral bioavailability in Beagle dog at 10 mg/kg. The format is ADME, organism-based, Canis lupus familiaris. As to conditions: in vivo.
A short description of data set [24]: Oral bioavailability in Sprague-Dawley rat at 3 mg/kg. The format is ADME, organism-based. The note with it: in vivo.
Data set [25] is described as follows: AUC in rhesus monkey at 1 mg/kg, po. The format is ADME, organism-based, Macaca mulatta. Also noted: dose 1 mg/kg, route oral. As to conditions: plasma.
Data set [26] can be described thus: Oral bioavailability in rhesus monkey at 1 mg/kg. The format is ADME, organism-based, Macaca mulatta. As to conditions: in vivo.
Data set [27] in a line: Plasma half life in Sprague-Dawley rat at 3 mg/kg, iv and 3 mg/kg, po. The format is ADME, organism-based.
Data set [28] is described as follows: Plasma half life in Beagle dog at 4 mg/kg, iv and 10 mg/kg, po. The format is ADME, organism-based, Canis lupus familiaris.
Data set [29] can be described thus: Solubility at pH 7.4. The note with it: buffer. The format is physicochemical.
In the next data set the target is Cytochrome P450 3A4 (Homo sapiens, UniProt P08684). In words: Inhibition of human CYP3A4 at 100 uM. The format is ADME.
The nature of data set [30]: Plasma half life in rhesus monkey at 1 mg/kg, po and 1 mg/kg, iv. The format is ADME, organism-based, Macaca mulatta.
The next data set has as its target Cytochrome P450 2C19 (Homo sapiens, UniProt P33261). In words: Inhibition of human CYP2C19 at 100 uM. The format is ADME.
A short description of data set [31]: AUC in Sprague-Dawley rat at 2.3 mg/kg, po. The format is ADME, organism-based. The arrangement: dose 2.3 mg/kg, route oral. The note with it: plasma.
Data set [32] is described as follows: AUC in Beagle dog at 1.5 mg/kg, po. The note with it: plasma. The format is ADME, organism-based, Canis lupus familiaris. The arrangement: dose 1.5 mg/kg, route oral.
Data set [33] can be described thus: AUC in Beagle dog at 0.8 mg/kg, po. The format is ADME, organism-based, Canis lupus familiaris. The arrangement: dose 0.8 mg/kg, route oral. The note with it: plasma.

As for `CN1C[C@H](OCc2ccccc2)C[C@H]1c1nc(C(=O)NCc2ccc(F)cc2)c(O)c(=O)n1C`, in data set [1], the bioavailability stood at 75%. This molecule had a half-life in [2] of 2.3 h. In addition, the IC95 in data set [3] was under 80 nM; in data set [4] it was 310 nM. Further, the clearance in [5] was found to be 28 mL/min/kg. The molecule also showed an IC50 in data set [6] of 130 nM. In addition, the fraction unbound is 0.05 in the data set filed under Homo sapiens and 0.07 in data set [7]. In addition, the AUC in data set [8] worked out at 2.3 µM·h. In data set [9], this molecule returned a logD of 2.2.

With `CN1CCOCC1c1nc(C(=O)NCc2ccc(F)cc2)c(O)c(=O)n1C.Cl` (single isomer, unassigned; (-)), the clearance in data set [10] stood at 2.6 mL/min/kg; in [5], 18 mL/min/kg. The bioavailability in [1] is 84%; in data set [11], 87%. The half-life was 1 h in data set [2] and 1.9 h in data set [12]. Moreover, the CIC95 in [3] is 90 µM; in data set [4], 190 µM. Further, the figures for the AUC (in data set [13]; with Rattus norvegicus) were 29 µM·h and 6 µM·h, respectively.

For `CN1CC(F)(F)C[C@H]1c1nc(C(=O)NCc2ccc(F)cc2)c(O)c(=O)n1C`, the clearance worked out at 5 mL/min/kg in data set [10] and 11 mL/min/kg in [5]. Further, the bioavailability in data set [1] stood at 93%; in [11] it was 100%. The fraction unbound is 0.15 in [14], 0.12 in the data set listed under Homo sapiens and 0.06 in [7]. Also, the half-life in data set [2] was 0.6 h; in data set [12], 6 h. The IC95 in data set [3] was 30 nM; in [4] it was 170 nM. The same molecule showed an IC50 in data set [6] of 30 nM. For the same molecule, the AUC is 9.9 µM·h in data set [15] and 11.8 µM·h in [16].

Turning to `CN1CCOCC1c1nc(C(=O)NCc2ccc(F)cc2)c(O)c(=O)n1C.Cl` (single isomer, unassigned; (+)), the Cmax stood at 35 µM in data set [17] and 5.6 µM in data set [20]. Besides, the clearance in [18] is 14 mL/min/kg; in data set [19], 9 mL/min/kg; in data set [21], 2.2 mL/min/kg. Moreover, the Activity result on Cytochrome P450 1A2, on Cytochrome P450 2D6, at Cytochrome P450 3A4 and on Cytochrome P450 2C19 was “Not Active” in each case. Moreover, the CIC95 in [3] was 40 µM; in data set [4], 65 µM. Also, the values for the AUC in data set [22], in data set [25] and in data set [16] were 136 µM·h, 2.2 µM·h and 8 µM·h, respectively. The figures for the bioavailability in [23], in [24] and in data set [26] were 69%, 56% and 73%, respectively. The half-life in [27] was 1.1 h; in data set [28], 7.2 h; in data set [30], 2 h. In [29], the concentration in solution (solubility) was 5800 µg/mL. In addition, the “Log D” value in data set [9] is listed as 0.47.

With `CN1C[C@H](O)C[C@H]1c1nc(C(=O)NCc2ccc(F)cc2)c(O)c(=O)n1C`, the bioavailability in [1] worked out at 2%. In addition, the half-life in data set [2] is 1.8 h. Moreover, the IC95 in data set [3] and in [4] was 630 nM throughout. In data set [5], this molecule came in with a clearance of 21 mL/min/kg. The molecule also registered an IC50 in [6] of 100 nM. Further, the fraction unbound in the data set filed under Homo sapiens is 0.28; in data set [7], 0.22. Further, in [31], the exposure (AUC) is 0.1 µM·h.

`CN1C[C@H](F)C[C@H]1c1nc(C(=O)NCc2ccc(F)cc2)c(O)c(=O)n1C`: the bioavailability in data set [1] worked out at 100%. Besides, the half-life in data set [2] is 2 h. The IC95 in data set [3] amounted to 130 nM; in [4] it was 250 nM. In addition, in [5], the clearance came to 12 mL/min/kg. Further, inhibition in data set [6] was half-maximal at 20 nM (IC50). Moreover, in data set [7], the fraction unbound is 0.03. In data set [16], this molecule displayed an AUC of 12.5 µM·h. Further, the logD in [9] came out at 0.66.

`CN1CCOCC1c1nc(C(=O)NCc2ccc(F)cc2)c(O)c(=O)n1C` (centres undefined): the clearance in data set [10] was 3 mL/min/kg; in data set [5] it was 22 mL/min/kg. Besides, the bioavailability in data set [1] stood at 92%; in data set [11] it was 100%. Also, the AUC is 22 µM·h in data set [32], 11 µM·h in data set [33], 1.7 µM·h in data set [25] and 4.3 µM·h in data set [31]. Moreover, the fraction unbound in data set [14] was 0.53; in [7] it was 0.22. For the same molecule, the half-life in data set [2] is 1.6 h; in [12], 10 h. The CIC95 in [3] came out at 0.06 µM; in data set [4], 0.1 µM. The same molecule registered a log distribution coefficient (logD) in data set [9] of 0.59.
